# Assays:
# PA14 = experiment: AQ (HHQ, PQS) quantification by LC-MS/MS in planktonic cultures, PA14; type: cell-based, Pseudomonas aeruginosa; settings: 3 x IC50
# Protocol: Since PqsR controls expression of the pqsABCDE operon encoding the enzymes required for different stages of AQ biosynthesis, quantification of HHQ, and PQS provides a direct measurement for inhibition of the biosynthetic pathway. Compound 40 was evaluated for its effect on AQ biosynthesis at a concentration three times the corresponding IC50 values for PAO1-L and PA14.
# Figure 5 Effect of compound 40 on AQ production: Quantification of AQ concentrations after treatment with the PqsR inhibitor 40 at 3x IC50 value for PAO1-L and PA14 each strain. The graph represents the average of three independent experiments carried out in triplicate (n = 9) for both strains.
# For each test sample, 100µl of sterile filtered supernatant (the same preparation as for pyocyanin) was spiked with 10µl of an internal standard solution (10µM d4-PQS in MeOH), and diluted with water to a total volume of 500µl. […]
# screening of the LC eluent for specific AQ analytes. Where chromatographic peaks for HHQ and PQS were detected, a peak area was determined and analyte peak area/internal standard peak area calculated.
# AQ quantification in biofilm cultures: […]
# For this experiment, the P. aeruginosa PAO1-L strain and M9 minimal medi um were used. […] The supernatant was col lected and the AQ extraction and quantification were performed following the LC MS/MS protocol described above . […]
# PA14 mCTX::PpqsA-lux = experiment: PpqsA-lux bioreporter assay, strain PA14; type: cell-based, Pseudomonas aeruginosa; settings: Pseudomonas aeruginosa, PA14, read-out: IC50 PA14
# From the text: To inform the structural variation of 7, crystal structures with the endogenous ligand [4-hydroxy-2-heptylquinoline (NHQ)] and the inhibitor M64 were used (Ilangovan et al., [2013]; Kitao et al., [2018]). The PqsR LBD is dominated by lipophilic interactions, therefore the current SAR exploration mainly focused on varying the aromatic tail substituents and examining the effect of 8-position substitution. The rationale for these modifications was primarily based on molecular docking studies that provided insights into the mode of binding of 7 and approaches intended to improve potency. The substituent at the para- position of the aromatic ring appeared to be crucial for biological activity due to the vital π-π stacking interaction of this group with Tyr^258. […] These strains emit light upon activation of PqsR by the endogenous production of these signal molecules. […] The results of the SAR in this assay highlight the importance of testing any prospective anti-virulence strategy on multiple genetically distinct P. aeruginosa strains as a means to reduce the chance of failure at both pre-clinical and clinical stages (Freschi et al., [2015]). […]
# PA14 mCTX::PpqsA-lux PA14 with chromosomal mini-CTX::PpqsA-lux (Soukarieh insertion; TcR et al., 2018) […]
# mini-CTX::PpqsA-lux R6K-based mini-CTX suicide plasmid for the (Diggle et chromosomal insertion of a PpqsA-lux al., 2007) transcriptional reporter fusion; TcR
# Biosensor reporter assay:
# Strains PA14 mCTX::PpqsA-lux and PAO1-L mCTX::PpqsA-lux were constructed using plasmid mini-CTX::PpqsA-lux as previously described (Diggle et al., 2007) and the assay was performed according to published procedures (Fletcher et al., 2007). For screening, the compounds were tested at 10 µM concentration which was prepared from 10 mM stock in DMSO. […]
structure (smiles),measurement,setting,value
"Cn1c2ccccc2c2nnc(SCC(=O)Nc3ccc(Oc4ccccn4)cc3)nc21 [Compound 40, 2-((5-Methyl-5H-[1,2,4]triazino[5,6-b]indol-3-yl)thio)-N-(4-(pyridin-2-yloxy)phenyl)acetamide]",production of HHQ and PQS,PA14,substantially reduce
same,IC50,PA14 mCTX::PpqsA-lux,0.34 ± 0.03 µM

# From article PMC7213079, “Hit Identification of New Potent PqsR Antagonists as Inhibitors of Quorum Sensing in Planktonic and Biofilm Grown Pseudomonas aeruginosa” (Frontiers in Chemistry, 2020)
